Assay results taken from patent EP1075525B1, “DNA POLYMERASE FROM PYROBACULUM ISLANDICUM” (Roche Diagnostics GmbH, priority 1999, dated 2000).
Values belong to the compound of their own block, whether it stands above or below them.

Tested on: DNA polymerase of P. islandicum
Assay: Non-radioactive DNA polymerase activity assay: influence of inhibitors and ions
Format: biochemical, Pyrobaculum islandicum
Settings: for DNA polymerase activity: pH 7.5, 0.5 mM MgCl2, 0 mM KCl, 0.5 U

Compound: C[C@@]1(CO)[C@H](O)CC[C@@]2(C)[C@H]1CC[C@H]1C[C@@H]3C[C@@]12CC[C@]3(O)CO [Aphidicolin]
- DNA polymerase activity (50 µM (17 µg/ml) aphidicolin, 75°C): 100%
- DNA polymerase activity (200 µM (68 µg/ml) aphidicolin, 75°C): 70%
- DNA polymerase activity (500 µM (170 µg/ml) aphidicolin, 75°C): 55%
- DNA polymerase activity (2000 µM (680 µg/ml) aphidicolin, 75°C): 21%

- DNA polymerase activity (1 mM N-Ethylmaleimid, preincubation of enzyme at 90°C for 20 min, 75°C): 40%
- DNA polymerase activity (2 mM N-Ethylmaleimid, preincubation of enzyme at 90°C for 20 min, 75°C): 30%
- DNA polymerase activity (5 mM N-Ethylmaleimid, preincubation of enzyme at 90°C for 20 min, 75°C): 0%
- DNA polymerase activity (in words) (after a preincubation with 5 mM NEM): total loss of activity
Compound: CCN1C(=O)C=CC1=O [N-Ethylmaleimid]

- residual activity (in the presence of 100 mM KCl, 75°C, pH 7.3, 0.5 mM MgCl2): 7%
Compound: [Cl-].[K+] [KCl]

- DNA polymerase activity (ddGTP/dGTP = 5, 75°C): 95%
- DNA polymerase activity (ddGTP/dGTP = 20, 75°C): 53%
- inhibition of DNA polymerase (in words) (ddGTP/dGTP ratio of 2): No inhibition
Compound: Nc1nc2c(ncn2[C@H]2CC[C@@H](COP(=O)(O)OP(=O)(O)OP(=O)(O)O)O2)c(=O)[nH]1 [ddGTP]
